# Experimental data from patent US20110105393A1, “METHODS FOR PROMOTING STEM CELL PROLIFERATION AND SURVIVAL” (priority 2007, published 2011).
# Assays:
# Hes3+ cells = Hes3+ cells after single intra-ventricular injection; type: in vivo, rat; details: for number of Hes3+ cells in the adult striatum and substantia nigra: single intracerebroventricular injection, within 5 days (FIG. 11); for number of stem cells/precursors in the adult brain: summary of in vivo treatments
# Method: (§1) Pharmacological treatments.
# (§2) Immunohistochemistry: Under deep anesthesia, animals were perfused transcardially with a rinse of saline, followed by 4% formaldehyde fixative (pH 7.4). Brains were removed immediately, stored in the fixative solution overnight and then in 30% sucrose for 3 days. Brains were frozen-sectioned at 16 μm. Immunohistochemical detection of BrdU and Hes3 was performed with an antigen-retrieval step (sections were boiled in 0.02M citrate, pH 6.0 in a microwave for 5 min, washed 3 times with distilled water, and incubated for 45 min in 2M HCl, at room temperature).
# (§3) Hes3+ cells in the central nervous system (CNS) parenchyma were characterized and the means to activate the NSC compartment in vivo was investigated. Single injections of pharmacologically active compounds were performed in the lateral ventricle, bromodeoxyuridine (BrdU) was administered intraperitoneally (days 2-4) and the animals were sacrificed on day 5. At the subventricular zone (SVZ), a single intra-ventricular injection of Dll4 induced STAT3-S727 phosphorylation and Hes3 expression within 5 days. […] BrdU+ cell numbers were elevated in all these areas (FIG. 3a).
# as §2, with “(Sections” for “(sections”, “minutes,” for “min,”
# [1] = system: proliferating (BrdU+) cells; experiment: BrdU+ proliferating cells after single intra-ventricular injection; type: in vivo, rat; details: BrdU days 2-4, sacrifice day 5
# Method: as §1, §2, §3
# STAT3-Ser727 = STAT3-Ser727 phosphorylation in NSC cultures; type: cell-based, mouse
# Method: Cell culture: E13.5 cortical embryonic mouse CNS stem cells were grown as previously described (Johe, et al., Genes Dev 10, 3129-40, 1996). Cells were expanded in serum-free DMEM/F12 medium with N2 supplement and FGF2 (20 ng/ml) for 5 days under 5% oxygen conditions and were re-plated fresh or from frozen stocks at 1,000-10,000 cells per cm^2. FGF2 was included throughout the studies, unless otherwise stated. […] Pharmacological treatments: Unless otherwise stated, the following concentrations were used: Dll4 and Ang-2 (in vitro, 500 ng/ml; in vivo 12.5 μg as a single injection), FGF2 (in vitro, 20 ng/ml), JAK inhibitor (in vitro, 200 nM; in vivo, 250 ng as a single injection), insulin (in vitro, 25 μg/ml; in vivo, 40 μg as a single injection), DAPT (1 μM), Fluorogold (0.5 μg). For the survival assays, compounds were added daily and Notch ligands every 2 days for the duration of the experiment. For the effects of kinase inhibitors on Notch activation, cells were pre-incubated for 1 h prior to Notch activation. […] Activation of the Notch receptor by addition of insulin or Dll4 was inhibited by DAPT, a γ-secretase inhibitor that blocks Notch cleavage. […] Insulin maintained STAT[…]727 phosphorylation levels, and acutely (1-h) induced it following a 16-h insulin withdrawal phase (FIG. 1c). […] Fetal NSCs in culture express Ang-1, and treatment (2 days) with Dll4 maintained it whereas CNTF reduced it. Ang-2 expression was maintained under these conditions. […] Ang-2 induced mTOR and STAT3-S727 phosphorylation, unlike Ang-1 (FIG. 2a). Ang-1, however, induced Akt phosphorylation.
# [2] = system: dopamine neurons in the substantia nigra; experiment: Fluorogold retrograde labelling of dopamine neurons in the substantia nigra, 6OHDA model; type: in vivo, rat; details: for neuroprotective effects on neurons: summary of in vivo treatments; for cell body diameter of TH+/Fluorogold+ cells in the substantia nigra: treatment 2-weeks following 6OHDA lesion, ipsilateral (FIG. 6e)
# Method: as §1
# To investigate the clinical potential of this treatment approach, the compounds were used in an animal model of Parkinson's disease. Adult rats were lesioned by intra-striatal 6-OH-DA (Przedborski, S. et al., Neuroscience 67, 631-47, 1995). After two weeks, a single injection of the compounds was administered in the lateral ventricle ipsilateral to the lesion. Amphetamine-induced rotations were measured bi-weekly throughout the experiment. Thirteen weeks after treatment they were given a single injection of fluorogold in the striatum to label the […] dopaminergic projection.
# blood vessels (RECA-1) = experiment: Blood vessel number and size in striatum (RECA-1 staining) after 6OHDA lesion and treatment; details: for number and size of blood vessels in the striatum: 13 weeks after a single treatment, pattern recognition software; for blood vessel numbers or size (undesirable effects, summary): rat, in vivo
# Method: Blood vessel counting and area quantitation: Zeiss software was used to identify, count, and measure blood vessels stained for the pan-endothelial marker RECA-1. To measure the average distance between adjacent Hes3+ cells along the same blood vessel, 25 high-power (×63) confocal z-stack images were used from brain sections stained for endothelial markers and Hes3.
# 6OHDA Lesion. Some animals underwent unilateral lesion of the nigrostriatal dopamine pathway by stereotactical injection of 50 μg 6-hydroxydopamine (6-OHDA) into the right striatum, using the following coordinates: bregma AP +0.5 mm, ML −3.0 mm, VD +5.5 mm.
# Pharmacological treatments. Unlesioned animals, or animals two weeks after 6-OHDA lesion, were treated with different pharmacologic agents. Five microliters (μl) of different drugs were stereotactically injected into the right lateral ventricle using the following stereotaxic coordinates: bregma AP −0.9 mm, ML −1.4 mm, VD +3.8 mm. The following reagents were used: Dll4 (2 mg/ml), Ang-2 (1 mg/ml), insulin (8 mg/ml), Jak-Inhibitor (20 μM), either alone or in combination.
# In vivo Experiments: Male adult (3-6 months) Sprague Dawley rats (Charles River Laboratories), weighing 250-350 gm, was used for pharmacological treatments and lesion experiments. For 6OHDA Lesion: animals underwent unilateral lesion of the nigrostriatal dopamine pathway by stereotactical injection of 50 μg 6-hydroxydopamine (6-OHDA) into the right striatum, using the following coordinates: bregma AP +0.5 mm, ML −3.0 mm, VD +5.5 mm. For pharmacological treatments: unlesioned animals, or animals two weeks after 6OHDA lesion, were treated with different pharmacologic agents. Five μl of different drugs were stereotactically injected into the right lateral ventricle using the following stereotaxic coordinates: bregma AP −0.9 mm, ML −1.4 mm, VD +3.8 mm. The following reagents were used: Dll4 (2 mg/ml), Ang2 (1 mg/ml), insulin (8 mg/ml), Jak-Inhibitor (20 μM), either alone or in combination. After all surgeries, animals were allowed to recover from the anesthesia and were put back into their home cages, where they were given access to food and water ad libitum. For labeling of dividing cells: Animals received intraperitoneal injection of the tracer bromodeoxyuridine (BrdU) (50 mg/kg) every 12 hours for 5 days beginning on day 1 post-op to label dividing cells. Amphetamine induced rotations: At multiple time points over the course of the experiment, lesioned rats were injected intra-peritoneally with D-Amphetamine sulfate (5 mg/kg) and placed in automated rotometer bowls. Rotational behavior was assessed by monitoring total number of whole body (360°) turns over 60 min.
# [3] = 6OHDA lesioned, striatum, RECA-1 (FIG. 5c)
Substance,number of Hes3+ cells in the adult striatum and substantia nigra (Hes3+ cells),number of stem cells/precursors in the adult brain (Hes3+ cells),number of proliferating cells in the SVZ [1],"STAT3-S727 phosphorylation (STAT3-Ser727; NSC cultures, 0.5 μg/ml (FIG. 2a))",neuroprotective effects on neurons [2],cell body diameter of TH+/Fluorogold+ cells in the substantia nigra [2],number of vessels (blood vessels (RECA-1); [3]),number and size of blood vessels in the striatum (blood vessels (RECA-1)),"blood vessel numbers or size (undesirable effects, summary) (blood vessels (RECA-1))","STAT3-S727 phosphorylation and Hes3 expression at the subventricular zone (Hes3+ cells; single intra-ventricular injection, within 5 days)",numbers of Hes3+ and Tie-2+ precursor cells in the SVZ (Hes3+ cells; single ventricular injection),diameter of the vessels (blood vessels (RECA-1); [3]),STAT3-Ser727 phosphorylation (STAT3-Ser727; acute (1-h) addition following a 16-h insulin withdrawal),STAT3-Ser727 phosphorylation levels (STAT3-Ser727; continued presence in NSC culture),"effect on the vasculature (striatum, RECA-1) (blood vessels (RECA-1); 6OHDA lesioned, end of experiment (FIG. 5c))"
Ang-2: human angiopoietin-2 (623-AN) from R&D; antagonist for angiopoietin-1 at Tie2,increased,increase,increased,induced,exert neuroprotective effects,increase,significantly increased,opposing and long-lasting effects,increases the number and size of blood vessels,–,–,–,–,–,–
Dll4: Notch ligand Delta-like 4; mouse Dll4 (1389-D4) from R&D,increased,increase,increased,–,exert neuroprotective effects,–,–,opposing and long-lasting effects,reduces the number and size of blood vessels,induced,rapidly increased,significantly decreased,–,–,–
"insulin: insulin (Sigma, 19278), growth factor",–,increase,increased,–,exert neuroprotective effects,increase,–,–,increases the number of blood vessels adjacent to the injection site,–,–,–,induced,maintained,relatively small effect
